The values below come from patent US20190151308A1 (Otsuka Pharmaceutical Co., Ltd., priority 2002, published 2019).

SMILES strings stand for the structures.

Test [1] can be described thus: Tail suspension test (TST). The following applies: 3 mg/kg p.o. of each drug; for Immobility time (sec, mean ± SE): 60 min before suspension, 5-15 min period, N = 7-9; for % of shortening for immobility time: versus vehicle. It is filed as in vivo, mice. An excerpt: The tail suspension test (TST) was originally described by Steru et al. […] The antidepressant activity of a test drug can be detected as an index of shortening the immobility time. This test is widely used as to an experimental animal model for predicting the antidepressant activity of a test drug in clinical settings. An automated device for performing the TST was developed by the authors of the TST (1989).^2) We improved this device and developed our own device incorporating an electric balance, an A/D converter, a testing box (30×25×25 cm), and a personal computer. The mouse was suspended from a hook hanging from the ceiling in the testing box by adhesive tape applied 20 mm from the tip of the tail. The duration of immobility was measured by the computer for a period of 15 min following the start of suspension. […] The experiments were carried out in a sound-proof room.

The nature of test [2]: Augmentation therapy in major depressive disorder patients non-responsive or partially responsive to serotonin reuptake inhibitors. The test is classed as in vivo. The following applies: 10 to 30 mg/day for 4 to 8 weeks, added to serotonin reuptake inhibitor therapy. The method, then: Only patients with such Hamilton scores receive treatment. These patients are interviewed to obtain a complete medical and psychiatric history.
Only patients with such Hamilton scores receive treatment. These patients are interviewed to obtain a complete medical and psychiatric history. Dehydroaripiprazole is first administered at a dose of 10 mg/day and increased to 30 mg/day as needed in the opinion of the monitoring psychiatrist. Dehydroaripiprazole is administered to these patients at a dose of from 10 mg/day to 30 mg/day for a period of at least four weeks, and up to eight weeks for patients who respond well to this treatment during the first four weeks.

In the case of `O=C1CCc2ccc(OCCCCN3CCN(c4cccc(Cl)c4Cl)CC3)cc2N1` [Aripiprazole, 7-{4-[4-(2,3-Dichlorophenyl)-1-piperazinyl]-butoxy}-3,4-dihydrocarbostyril], in test [1], the “Immobility time (sec, mean ± SE)” value amounted to 486.4 ± 12.3 s and the “% of shortening for immobility time” value is recorded as 3%. Also, the “symptoms of depression (Hamilton test, CGI, AIMS, SAS, Barnes)” value in test [2] is on record as “improvement in alleviation of symptoms of depression”.
Take `CN(C)CCCC1(c2ccc(F)cc2)OCc2cc(C#N)ccc21` (centres unmarked) [Citalopram, citalopram]: in test [1], the “Immobility time (sec, mean ± SE)” value is 468.7 ± 24.2 s and the “% of shortening for immobility time” value is 6%.
